Source: US20260125400A1, “TYK2 DEGRADERS AND USES THEREOF” (Kymera Therapeutics, Inc., priority 2023, published 2026)
Like-named read-outs stand apart in the source and are kept apart here.

Biological target: T1, TYK2 (Homo sapiens, UniProt P29597)
T1 construct: Degradation of TYK2 in cells was quantitatively measured using Meso Scale Discovery (MSD) technology; endogenous in cells; host or cells: OCI-LY10
Test: TYK2 MSD degradation in OCI-LY10 cells
Format: cell-based
Conditions: 4 to 24 hours incubation; for DC50: read-out: TYK2 MSD OCI-LY10 Rel-DC50
Method: Example 7. TYK2 MSD Degradation
Degradation of TYK2 in cells was quantitatively measured using Meso Scale Discovery (MSD) technology. OCI-LY10 cells were seeded in 96-well plates with a density of 0.4 million cells per well in 100 μl fresh media. Compounds were then added to the assay plates with a final top concentration of 1 to 10 μM in a 1:3 dilution series with total of 9 doses. The assay plates were then incubated for 4 to 24 hours at 37° C. under […]. The assay plates were then centrifuged for 5 minutes, and the cell pellets were treated with 100 μl/well RIPA lysis buffer (Boston Bioproducts, BP-115D) with protease and phosphatase inhibitors (Roche, 05892791001 and 04906837001). To prepare MSD assay plates (MSD, L15XA), the plates were coated with the capture antibody (Santa Cruz Biotechnology, SC-5271) in PBS, at 40 μl/well. The plates were then incubated overnight at 4° C., washed 3 times with 150 μl/well TBST buffer (Cell Signaling Technology, 9997S) and blocked with 150 μl/well blocking buffer (MSD, R93BA-4). Cell lysates were then added to MSD assay plates and the plates were incubated at room temperature for 1 hour. The plates were then washed 3 times with 150 μl/well TBST buffer and 25 μl/well primary detection antibody (Cell Signaling Technology, #9312). The assay plates were then incubated at room temperature for 1 hour, washed 3 times with 150 μl/well TBST buffer, and 25 μl/well secondary detection antibody, SULFO-TAG anti-rabbit antibody (MSD, R32AB-1) were added. The assay plates were then incubated at room temperature for 1 hour, washed 3 times with 150 μl/well TB ST buffer, and 150 μl/well MSD reading buffer (MSD, R92TC-2) were added. The plates were then analyzed by an MSD reader. The data was analyzed by GraphPad Prism and the dose dependent TYK2 degradation was fit using the four-parameter inhibitor vs. response nonlinear regression.
The letter codes for TYK2 DC50 include: A (<1 nM); B (i to <10 nM); C (10 to 100 nM); D (>100 nM); and E (not tested). The letter codes for TYK2 Dmax % include: A (>90%); B (90 to >75%); C (75 to 50%); D (<50%); and E (not tested).

[1] = TYK2 degradation in OCI-LY10 cells

T1 sequence (P29597 whole entry): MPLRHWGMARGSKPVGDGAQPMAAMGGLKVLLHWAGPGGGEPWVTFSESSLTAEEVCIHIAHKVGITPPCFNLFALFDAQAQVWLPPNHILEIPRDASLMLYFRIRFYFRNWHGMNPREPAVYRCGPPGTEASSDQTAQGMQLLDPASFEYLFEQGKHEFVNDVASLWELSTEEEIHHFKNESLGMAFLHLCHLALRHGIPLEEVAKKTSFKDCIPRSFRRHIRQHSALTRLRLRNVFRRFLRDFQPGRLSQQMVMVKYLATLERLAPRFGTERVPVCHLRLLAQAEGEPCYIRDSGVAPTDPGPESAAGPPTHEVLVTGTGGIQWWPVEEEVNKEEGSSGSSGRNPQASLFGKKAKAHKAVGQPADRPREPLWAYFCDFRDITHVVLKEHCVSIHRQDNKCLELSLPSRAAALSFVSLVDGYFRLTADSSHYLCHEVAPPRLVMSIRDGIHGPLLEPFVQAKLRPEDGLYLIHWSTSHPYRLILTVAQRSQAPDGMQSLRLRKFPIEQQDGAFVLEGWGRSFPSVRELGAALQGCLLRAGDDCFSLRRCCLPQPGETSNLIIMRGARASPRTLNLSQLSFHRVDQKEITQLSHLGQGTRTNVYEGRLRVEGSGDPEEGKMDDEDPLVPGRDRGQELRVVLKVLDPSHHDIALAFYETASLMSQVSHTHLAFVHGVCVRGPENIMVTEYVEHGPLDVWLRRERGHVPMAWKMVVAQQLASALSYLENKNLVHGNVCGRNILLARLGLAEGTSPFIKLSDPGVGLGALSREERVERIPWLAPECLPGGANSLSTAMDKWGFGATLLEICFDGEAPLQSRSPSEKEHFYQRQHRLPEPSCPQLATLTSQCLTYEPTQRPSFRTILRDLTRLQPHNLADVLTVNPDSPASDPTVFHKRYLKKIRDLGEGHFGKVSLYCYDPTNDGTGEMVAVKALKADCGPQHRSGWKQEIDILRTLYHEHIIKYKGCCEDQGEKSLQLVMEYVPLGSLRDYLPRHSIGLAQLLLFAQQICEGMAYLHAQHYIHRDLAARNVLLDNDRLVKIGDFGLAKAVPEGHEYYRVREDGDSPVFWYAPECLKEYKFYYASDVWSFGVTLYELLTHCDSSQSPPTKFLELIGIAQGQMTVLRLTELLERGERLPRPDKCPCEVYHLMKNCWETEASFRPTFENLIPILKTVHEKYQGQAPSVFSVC

Compound | TYK2 MSD OCI-LY10 Dmax % (OCI-LY10 cells) | DC50 (OCI-LY10 cells) [nM] | TYK2 MSD OCI-LY10 Dmax % [1] | DC50 [1] [nM]
CNc1cc(N2CCc3c(-c4ccc(CN5CCN(CCC6CCN(c7ccc(Cl)c(C8CCC(=O)NC8=O)c7)CC6)CC5)cn4)cccc32)nn2c(C(=O)NC3CC3F)cnc12 (mixture of isomers) [I-438] | C (C (75 to 50%)) | < 10 |  | 
CNc1cc(N2CCc3c(-c4ccc(N5CCN(CC6CCN(c7ccc(Cl)c(C8CCC(=O)NC8=O)c7)CC6)CC5)cn4)cccc32)nn2c(C(=O)NC3CC3F)cnc12 (mixture of isomers) [I-442] | C (C (75 to 50%)) | < 10 |  | 
CNc1cc(N2CCc3c(-c4ccc(N5CC6(CCN(Cc7ccc(C8CCC(=O)NC8=O)c(Cl)c7)CC6)C5)cn4)cccc32)nn2c(C(=O)NC3CC3F)cnc12 (mixture of isomers) [I-445] | B (B (90 to >75%)) | < 10 |  | 
CNc1cc(N2CCc3c(-c4ccc(N5CCC6(CC5)CN(C(=O)c5ccc(C7CCC(=O)NC7=O)c(Cl)c5)C6)cn4)cccc32)nn2c(C(=O)NC3CC3F)cnc12 (mixture of isomers) [I-447] | C (C (75 to 50%)) | < 10 |  | 
CNc1cc(N2CCc3c(-c4ccc(CN5CCC(N6CCN(c7ccc8c(c7)n(C)c(=O)n8C7CCC(=O)NC7=O)CC6)CC5)cn4)cccc32)nn2c(C(=O)N[C@@H]3C[C@@H]3F)cnc12 (some centres unmarked) [I-1] |  |  | B (B (90 to >75%)) | < 1
CNc1cc(N2CCc3c(-c4cc(CN5CCC(c6ccc7c(c6)n(C)c(=O)n7C6CCC(=O)NC6=O)C(F)(F)C5)ccn4)cccc32)nn2c(C(=O)NC3CC3)cnc12 (centres unmarked) [I-4] |  |  | D (D (<50%)) | > 100
CNc1cc(N2CCc3c(N4CCC(CN5CCC(N6CCN(c7ccc8c(c7)n(C)c(=O)n8C7CCC(=O)NC7=O)CC6)C(F)(F)C5)CC4)cccc32)nn2c(C(=O)NC3CC3)cnc12 (centres unmarked) [I-5] |  |  | C (C (75 to 50%)) | < 10
CNc1cc(N2CCc3c(N4CC(CN5CCC(N6CCN(c7ccc8c(c7)n(C)c(=O)n8C7CCC(=O)NC7=O)CC6)C(F)(F)C5)C4)cccc32)nn2c(C(=O)NC3CC3)cnc12 (centres unmarked) [I-12] |  |  | C (C (75 to 50%)) | < 1
CNc1cc(N2CCc3c(CN4CCC(N5CCN(c6ccc7c(c6)n(C)c(=O)n7C6CCC(=O)NC6=O)CC5)C(F)(F)C4)cccc32)nn2c(C(=O)NC3CC3)cnc12 (centres unmarked) [I-15] |  |  | C (C (75 to 50%)) | < 1
CNc1cc(N2CCc3c(CN4CCC(N5CCC6(CCN(c7ccc8c(c7)n(C)c(=O)n8C7CCC(=O)NC7=O)CC6)CC5)C(F)(F)C4)cccc32)nn2c(C(=O)NC3CC3)cnc12 (centres unmarked) [I-19] |  |  | B (B (90 to >75%)) | < 10
CNc1cc(N2CCc3c(-c4cc(CN5CCC6(CC5)CN(c5ccc7c(c5)n(C)c(=O)n7C5CCC(=O)NC5=O)C6)ccn4)cccc32)nn2c(C(=O)NC3CC3)cnc12 (centres unmarked) [I-21] |  |  | D (D (<50%)) | < 10
CNc1cc(N2CC3(CCN(C4CCN(c5cccc6c5n(C)c(=O)n6C5CCC(=O)NC5=O)CC4)CC3)c3ccccc32)nn2c(C(=O)NC3CC3)cnc12 (centres unmarked) [I-23] |  |  | D (D (<50%)) | > 100
CNc1cc(N2CC3(CCN(CC4CCN(c5ccc6c(c5)n(C)c(=O)n6C5CCC(=O)NC5=O)CC4)CC3)c3ccccc32)nn2c(C(=O)NC3CC3)cnc12 (centres unmarked) [I-24] |  |  | D (D (<50%)) | > 100
CNc1cc(N2CC3(CCN(CC4CCN(c5cccc6c5n(C)c(=O)n6C5CCC(=O)NC5=O)CC4)CC3)c3ccccc32)nn2c(C(=O)NC3CC3)cnc12 (centres unmarked) [I-25] |  |  | D (D (<50%)) | > 100
CNc1cc(N2CCc3c(-c4ccc(CN5CC6(CCN(C(=O)c7ccc(Cl)c(N8CCC(=O)NC8=O)c7)CC6(F)F)C5)cn4)cccc32)nn2c(C(=O)NC3CC3)cnc12 [I-29] |  |  | B (B (90 to >75%)) | < 10
CNc1cc(N2CCc3c(N4CCN(C5CCC6(CC5)CCN(c5ccc7c(c5)n(C)c(=O)n7C5CCC(=O)NC5=O)CC6)CC4)cccc32)nn2c(C(=O)NC3CC3)cnc12 (centres unmarked) [I-31] |  |  | D (D (<50%)) | < 10

Compound | TYK2 MSD OCI-LY10 Dmax % (OCI-LY10 cells) | DC50 (OCI-LY10 cells) [nM] | TYK2 MSD OCI-LY10 Dmax % [1] | DC50 [1] [nM]
CNc1cc(N2CCc3c(N4CCN(CC5CC6(CCN(C(=O)c7ccc(Cl)c(N8CCC(=O)NC8=O)c7)CC6)C5)CC4)cccc32)nn2c(C(=O)NC3CC3)cnc12 [I-32] |  |  | C (C (75 to 50%)) | < 10
CNc1cc(N2CC3(CCN(Cc4ccc5c(c4)n(C)c(=O)n5C4CCC(=O)NC4=O)CC3)c3ccccc32)nn2c(C(=O)NC3CC3)cnc12 (centres unmarked) [I-34] |  |  | D (D (<50%)) | > 100
CNc1cc(N2CCc3c(N4CCN(CC5CCC6(CC5)CCN(c5ccc7c(c5)n(C)c(=O)n7C5CCC(=O)NC5=O)CC6)CC4)cccc32)nn2c(C(=O)NC3CC3)cnc12 (centres unmarked) [I-39] |  |  | D (D (<50%)) | < 10
CNc1cc(N2CCc3c(N4CCN(CCC5CCN(c6ccc7c(c6)n(C)c(=O)n7C6CCC(=O)NC6=O)CC5)CC4)cccc32)nn2c(C(=O)NC3CC3)cnc12 (centres unmarked) [I-40] |  |  | D (D (<50%)) | > 100
CNc1cc(N2CC3(CCN(CCc4cccc5c4n(C)c(=O)n5C4CCC(=O)NC4=O)CC3)c3ccccc32)nn2c(C(=O)NC3CC3)cnc12 (centres unmarked) [I-41] |  |  | D (D (<50%)) | > 100
CNc1cc(N2CC3(CCN(c4ccc5c(c4)n(C)c(=O)n5C4CCC(=O)NC4=O)CC3)c3ccccc32)nn2c(C(=O)NC3CC3)cnc12 (centres unmarked) [I-42] |  |  | D (D (<50%)) | > 100
CNc1cc(N2CCc3c(C4CCCN(CC5CN(c6ccc7c(c6)n(C)c(=O)n7C6CCC(=O)NC6=O)C5)C4)cccc32)nn2c(C(=O)NC3CC3)cnc12 (centres unmarked) [I-45] |  |  | C (C (75 to 50%)) | < 1
CNc1cc(N2CCc3c(-c4ccc(CN5CCC(N6CCC7(CC6)CN(c6ccc8c(c6)n(C)c(=O)n8C6CCC(=O)NC6=O)C7)C(F)(F)C5)cn4)cccc32)nn2c(C(=O)NC3CC3)cnc12 (centres unmarked) [I-47] |  |  | B (B (90 to >75%)) | < 10
CNc1cc(N2CC3(CCN(c4cccc5c4n(C)c(=O)n5C4CCC(=O)NC4=O)CC3)c3ccccc32)nn2c(C(=O)NC3CC3)cnc12 (centres unmarked) [I-51] |  |  | D (D (<50%)) | > 100
CNc1cc(N2CC3(CCN(Cc4cccc5c4n(C)c(=O)n5C4CCC(=O)NC4=O)CC3)c3ccccc32)nn2c(C(=O)NC3CC3)cnc12 (centres unmarked) [I-52] |  |  | D (D (<50%)) | > 100
CNc1cc(N2CC3(CCN(CCc4ccc5c(c4)n(C)c(=O)n5C4CCC(=O)NC4=O)CC3)c3ccccc32)nn2c(C(=O)NC3CC3)cnc12 (centres unmarked) [I-53] |  |  | D (D (<50%)) | > 100
CNc1cc(N2CCc3c(-c4ccc(CN5CCC6(CC5)CCN(c5cccc7c5n(C)c(=O)n7C5CCC(=O)NC5=O)CC6)cn4)cccc32)nn2c(C(=O)NC3CC3)cnc12 (centres unmarked) [I-54] |  |  | C (C (75 to 50%)) | < 10
CNc1cc(N2CCc3c(N4CCN(CC5CCC6(CC5)CCN(C(=O)c5ccc(Cl)c(N7CCC(=O)NC7=O)c5)CC6)CC4)cccc32)nn2c(C(=O)NC3CC3)cnc12 [I-55] |  |  | D (D (<50%)) | > 100
CNc1cc(N2CCc3c(C4CCN(CC5CCC6(CC5)CCN(C(=O)c5ccc(Cl)c(N7CCC(=O)NC7=O)c5)CC6)CC4)cccc32)nn2c(C(=O)NC3CC3)cnc12 [I-56] |  |  | C (C (75 to 50%)) | < 10
CNc1cc(N2CCc3c(-c4ccc(CN5CCC6(CCN(C(=O)c7ccc(Cl)c(N8CCC(=O)NC8=O)c7)CC6)C(F)(F)C5)cn4)cccc32)nn2c(C(=O)NC3CC3)cnc12 [I-57] |  |  | B (B (90 to >75%)) | < 10
